Laboratory results reported in US20170215432A1, “SYNERGIZED PLANT EXTRACT/ESSENTIAL OIL BLEND COMPRISING BASIL OIL” (VAMA INC., priority 2014, published 2017).

System: Anopheles, Aedes, Stephinsi and Culex mosquito vectors
Test: Laboratory cage repellency, landing counts on treated sugar-soaked cotton bowls
Format: in vivo
Protocol: Studies were carried out against each individual species in replicates of three in each of the replicate cage, one hundred 3 to 5-day old sugar—fed female mosquitoes were held. Mosquito that are pre-starved for 4 hr or more prior to testing were used for the experiment.
Five plastic bowls with sugar—soaked cotton (10% in water) were placed at four opposing corners and one in the middle of the cage. These bowls were treated with the specified concentration of the composition described in Example 3, one specified concentration of DEET (know synthetic repellent compound as positive control) and one with only sugar-soaked cotton (Negative control). The four treated bowls were placed in four opposing corners while the untreated negative control in the middle on the floor of the cage. Five-minute landing counts were made at 0, 1, 2, 3, 4, and 6 hours with the cups were removed between the exposure intervals. Mean percent repellency for each percent formulation and species was calculated based on the data of the three replicates at the given times of observation.

**Q.** `CCN(CC)C(=O)c1cccc(C)c1` [DEET] was tested. Which “mosquitoes repelled with reference to the control” value (after 4 hrs) did it give?
**A.** 79%

**Q.** What about the mosquitoes repelled (in 4 hrs) of the same compound?
**A.** 97%
